Source: BigSolDB 2.1

c1ccc2[nH]cnc2c1
solubility (mole fraction)
Conditions | 283.15 K | 288.15 K | 293.15 K | 298.15 K | 303.15 K | 308.15 K | 313.15 K | 318.15 K | 323.15 K
in 1,4-dioxane | 0.0138 | 0.0171 | 0.0192 | 0.0215 | 0.0242 | 0.0256 | 0.0292 | 0.0321 | 0.0384
in 2-butanone | 0.0222 | 0.0265 | 0.03 | 0.0341 | 0.0393 | 0.0451 | 0.0521 | 0.0582 | 0.0664
in acetone | 0.0192 | 0.022 | 0.0256 | 0.0296 | 0.0342 | 0.0398 | 0.0452 | 0.0525 | 0.0576
in acetonitrile | 0.00513 | 0.0063 | 0.00754 | 0.00905 | 0.0107 | 0.0123 | 0.0148 | 0.0166 | 0.0194
in ethanol | 0.0767 | 0.0837 | 0.0911 | 0.0993 | 0.109 | 0.118 | 0.125 | 0.14 | 0.152
in ethyl acetate | 0.00813 | 0.0094 | 0.0108 | 0.0128 | 0.0143 | 0.0167 | 0.0193 | 0.0223 | 0.0259
in isobutanol | 0.0747 | 0.083 | 0.0947 | 0.103 | 0.114 | 0.125 | 0.134 | 0.139 | 0.156
in isobutyl acetate | 0.00698 | 0.00808 | 0.00944 | 0.0103 | 0.0122 | 0.0137 | 0.016 | 0.0176 | 0.0197
in isopropanol | 0.0636 | 0.073 | 0.0785 | 0.0852 | 0.0959 | 0.109 | 0.117 | 0.13 | 0.134
in isopropyl acetate | 0.00761 | 0.00867 | 0.01 | 0.0113 | 0.0132 | 0.0152 | 0.0169 | 0.0191 | 0.0219
in methanol | 0.0888 | 0.097 | 0.105 | 0.113 | 0.12 | 0.129 | 0.143 | 0.157 | 0.17
in methyl acetate | 0.00781 | 0.00918 | 0.0108 | 0.0126 | 0.0146 | 0.0167 | 0.0198 | 0.0228 | 0.0265
in n-butanol | 0.0857 | 0.091 | 0.105 | 0.113 | 0.121 | 0.13 | 0.141 | 0.15 | 0.161
in n-butyl acetate | 0.0064 | 0.00759 | 0.00873 | 0.0102 | 0.0121 | 0.0144 | 0.0166 | 0.0182 | 0.0216
in n-pentanol | 0.0983 | 0.105 | 0.109 | 0.119 | 0.129 | 0.137 | 0.143 | 0.155 | 0.165
in n-propanol | 0.0798 | 0.0896 | 0.0961 | 0.107 | 0.113 | 0.121 | 0.137 | 0.147 | 0.156
in n-propyl acetate | 0.00645 | 0.0076 | 0.009 | 0.0105 | 0.0127 | 0.0141 | 0.0165 | 0.0189 | 0.0219
in sec-butanol | 0.0881 | 0.0973 | 0.105 | 0.11 | 0.117 | 0.127 | 0.137 | 0.151 | 0.162
in water | 0.000498 | 0.000604 | 0.000739 | 0.000874 | 0.000994 | 0.00115 | 0.00133 | 0.00156 | 0.00184
